Holding throughout (assay type): cell-based, Escherichia coli
The subject of experiment [1] is E. coli clinical strain 7426. Kind of experiment: clinical gradient diffusion (E-test, bioMérieux). Conditions: gradient diffusion overnight. The method, then:
(§1) Following testing of the QC strains, the cAST platform was used to test two E. coli clinical isolates. Following the same protocol used to test the QC strains, the clinical isolates were tested with ten two-fold dilution gentamicin concentrations spanning 0.5 μg/mL to 256 μg/mL. Testing was conducted blind and results were subsequently compared with clinical results generated using gradient diffusion (E-test, bioMérieux).

For experiment [2], the system named is E. coli clinical strain 7704. In words: clinical gradient diffusion (E-test, bioMérieux). As to conditions: gradient diffusion overnight. The method, then: as §1
The test system of experiment [3] is E. coli clinical strain 7426. In words: cAST platform antimicrobial susceptibility testing (resazurin, capillary format). As for the experimental part: (§2) The disclosure includes use of steel capillary tubes of size 50 mm×1.59 mm×0.76 mm (L×O.D.×I.D.) to hold the samples. Alternatively, glass capillary tubes (Drummond Scientific) of similar size can also be used. However, in the case of glass, the ends of the tubes are coated with paint or a similar substance to prevent excess light from the LEDs leaking into the fiber-optic detector. During sample loading, 4 μL liquid culture droplets were individually pipetted onto a clean substrate and then loaded into the tubes via capillary action. The capillary tubes used as conduits were sterilized prior to loading through autoclaving. Following loading, tubes were inserted into the sample holder in a configuration that allows light from the LEDs to pass through the sample and into the fiber-optic detector. Since the volume capacity of the capillary tubes was higher than the sample volume of 4 μL, the tubes were loaded with the fluid-filled side near the light-source as this configuration was determined to yield higher signal-to-noise ratios. This approach to sample loading is encompassed by the disclosure. During AST, the cAST platform was placed inside a benchtop incubator (Corning) set to 37° C. in ambient air. A small portable humidifier was also placed inside the incubator (80-85% relative humidity) to minimize sample drying during incubation. Thus, in embodiments, a system of the disclosure may include a humidifying device or composition to act as […]. Every 30 min, spectral intensity measurements were automatically taken for each sample and data were transferred and stored on a computer for processing using OceanView (Ocean Optics).
(§3) The cAST platform was initially used to test five different quality control (QC) strains: Escherichia coli ATCC 25922, Enterobacter cloacae ATCC 13047, Acinetobacter baumannii ATCC BAA-747, Pseudomonas aeruginosa ATCC 27853, and Escherichia coli K12 ER2267 (kanamycin resistant). To prepare inocula for AST, strains were first streaked on Mueller-Hinton II agar plates (Becton, Dickinson and Company) and incubated overnight at 37° C. in ambient air. For the kanamycin resistant E. coli K12 strain, the agar was supplemented with kanamycin (MilliporeSigma) at a final concentration of 50 μg/mL. Liquid cultures were then prepared by inoculating single colonies into CAMHB, followed by overnight incubation at 37° C. in ambient air. […] Using a spectrophotometer (V-1200, VWR), the OD625nm absorbance corresponding to a 0.5 McFarland standard was verified to be in the range of 0.08-0.13^21. […] Resazurin is a redox indicator that is reduced by metabolically active cells into resorufin, leading to significant colorimetric and fluorescent changes in the culture media which can be measured to gauge bacterial growth^20. […]

For experiment [4], the system named is E. coli clinical strain 7704. The experiment is described as above. As for the experimental part: as §2, §3
[5] abbreviates: cAST in categorical agreement with gradient diffusion.

On to gentamicin, for which the minimal inhibitory concentration (MIC) in experiment [1] was at least 256 µg/mL; in experiment [2], 1.5 µg/mL. Further, the “predicted MIC” value in experiment [3] (cAST at 6 h) was 128 µg/mL; in experiment [4] (cAST at 6 h), 1 µg/mL. Besides, the susceptibility category result is “resistant (resistant (≥16 μg/mL))” in experiment [3] (setting [5]) and “susceptible (susceptible (≤4 μg/mL))” in experiment [4] (setting [5]).

Values taken from patent publication US12391972B2, “Capillary-based system for accelerated antimicrobial susceptibility testing” (Cornell University, priority 2019, dated 2025).
